Assay results: patent US20260276643A1, “METHODS FOR PREDICTING AND IMPROVING THERAPEUTIC EFFICACY OF CANCER TREATMENTS AND METHODS FOR CANCER PROGNOSIS” (Università degli studi di Verona, priority 2023, published 2026)
Like-named read-outs stand apart in the source and are kept apart here.

What was measured:
[1] = test system: CLDN18.2 expression in cancer cells; conditions: WO2013/174510; Tureci 2019; cited from earlier work
[2] = test system: CLDN18 expression in DANG cells; assay: CLDN18 exogenous regulation in vitro: CLDN18 staining of treated DANG cells; assay type: cell-based, human

Row | Compound | CLDN18.2 expression levels in cancer cells [1] | CLDN18 expression (percentage of CLDN18+ cells) [2] | other results
1 | O=c1[nH]cc(F)c(=O)[nH]1 [5-fluorouracil, 5-fluoro-1H-pyrimidine-2,4-dione] | upregulate existing CLDN18.2 expression levels in cancer cells | – | –
2 | Nc1ccn([C@@H]2O[C@H](CO)[C@@H](O)C2(F)F)c(=O)n1 [Gemcitabine, 4-amino-1-(2-deoxy-2,2-difluoro-β-D-erythro-pentofuranosyl)pyrimidin-2(1H)-one] | upregulate existing CLDN18.2 expression levels in cancer cells | – | CLDN18 expression (mean fluorescence intensity, fold change on untreated) ([2]; DANG cells, 48 hours treatment, FIG. 7): induced CLDN18 expression in DANG cells
3 | CCCCCCCCCCCCCC(=O)O[C@@H]1[C@@H](C)[C@@]2(O)[C@@H](C=C(CO)C[C@]3(O)C(=O)C(C)=C[C@@H]23)[C@@H]2C(C)(C)[C@]12OC(C)=O [PMA, Phorbol 12-myristate 13-acetate] | – | induced CLDN18 expression in DANG cells | CLDN18 expression (mean fluorescence intensity, fold change on untreated) [2]: induced CLDN18 expression in DANG cells
4 | NC(=O)Nc1sc(-c2ccc(F)cc2)cc1C(N)=O [TPCA-1] | – | induced CLDN18 expression in DANG cells | –
5 | O=C1[O][Pt]2([NH][C@@H]3CCCC[C@H]3[NH]2)[O]C1=O [oxaliplatin, [(1R,2R)-cyclohexane-1,2-diamine](ethanedioato-O,O′)platinum(II)] | upregulate existing CLDN18.2 expression levels in cancer cells | – | –
6 | Verteporfin | – | – | CLDN18 expression (percentage of CLDN18+ cells) ([2]; DANG cells, extended experiment, FIG. 11): induced CLDN18 expression in DANG cells
